Results from patent US8927500B2, “Peptidomimetic macrocycles” (Aileron Therapeutics, Inc., priority 2012, dated 2015).
pIC50, pKi: −log10 of the molar value. Where a SMILES comes first, the peptide text is derived from it. Bridges are numbered along the chain shown (N, C = ends). [ ]: non-standard residue; d: D form. R8 = C=CCCCCCC[C@@](C)(N)C(=O)O; Cha = N[C@@H](CC1CCCCC1)C(=O)O; Chg = N[C@H](C(=O)O)C1CCCCC1; hLeu = CC(C)CC[C@H](N)C(=O)O; S5 = C=CCCC[C@](C)(N)C(=O)O; Nle = CCCC[C@H](N)C(=O)O; Ac3c = NC1(C(=O)O)CC1

Columns and labels:
[1] = biological target: MDM2 (Homo sapiens, UniProt Q00987); experiment: Competitive fluorescence polarization assay for MDM2; assay type: binding; conditions: competitive FP assay, MDM2; for pIC50: read-out: IC50 (MDM2); for pKi: read-out: Ki (MDM2)
[2] = system: SJSA-1 cells; experiment: Cell lysis by peptidomimetic macrocycles (LDH release); assay type: cell-based; conditions: 1 h at 37C
[3] = biological target: T1, MDMX (Homo sapiens, UniProt O15151); experiment: Competitive fluorescence polarization assay for MDMX; assay type: binding; conditions: competitive FP assay; for pIC50: read-out: IC50 (MDMX); for pKi: read-out: Ki (MDMX)
T1 sequence (O15151 1-125): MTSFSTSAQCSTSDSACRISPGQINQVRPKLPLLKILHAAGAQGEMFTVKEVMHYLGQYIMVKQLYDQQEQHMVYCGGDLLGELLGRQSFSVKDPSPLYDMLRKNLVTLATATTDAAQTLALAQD

MDM2, sequence (Q00987 1-125): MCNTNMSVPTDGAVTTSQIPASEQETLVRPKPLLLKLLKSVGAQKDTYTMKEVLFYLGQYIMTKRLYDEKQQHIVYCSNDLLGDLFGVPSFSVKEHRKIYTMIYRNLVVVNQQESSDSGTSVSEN

SMILES	pIC50 [1]	pKi [1]	pIC50 [3]	pKi [3]	6.25 uM % Lysed cells (1 h LDH) [2] [%]	25 uM % Lysed cells (1 h LDH) [2] [%]	50 uM % Lysed cells (1 h LDH) [2] [%]
CC(=O)N[C@@H](Cc1ccccc1)C(=O)N[C@]1(C)CCCCCCC=CCCC[C@@](C)(C(=O)N[C@@H](C)C(=O)N[C@@H](C)C(=O)N[C@@H](CC(C)C)C(N)=O)NC(=O)[C@H](CC(C)C)NC(=O)C2(CC2)NC(=O)[C@H](CCC(=O)O)NC(=O)[C@H](Cc2c[nH]c3ccccc23)NC(=O)[C@H](Cc2ccc(O)cc2)NC(=O)[C@H](C)NC1=O [compound 15] (Ac-F[R8]AYWE[Ac3c]L[S5]AAL-NH2; staple 2-9)	7.00 to 8.00	7.00 to 8.00	6.00 to 7.00	7.00 to 8.00	1	2	5
CC(=O)N[C@@H](CC(C)C)C(=O)N[C@H](C(=O)N[C@@H](Cc1ccccc1)C(=O)N[C@]1(C)CCCCCCC=CCCC[C@@](C)(C(=O)N[C@@H](CO)C(=O)N[C@@H](C)C(=O)N[C@H](C(N)=O)C2CCCCC2)NC(=O)[C@H](CC(C)C)NC(=O)[C@H](CCC(N)=O)NC(=O)[C@H](C)NC(=O)[C@H](Cc2c[nH]c3ccccc23)NC(=O)[C@H](Cc2ccc(O)cc2)NC(=O)[C@H](C)NC1=O)[C@@H](C)O [compound 9] (Ac-LTF[R8]AYWAQL[S5]SA[Chg]-NH2; staple 4-11)	6.00 to 7.00	7.00 to 8.00	6.00 to 7.00	7.00 to 8.00	−3	0	2
CC(=O)N[C@@H](Cc1ccccc1)C(=O)N[C@]1(C)CCCCCCC=CCCC[C@@](C)(C(=O)N[C@@H](C)C(=O)N[C@@H](C)C(=O)N[C@@H](Cc2ccccc2)C(N)=O)NC(=O)[C@H](CC(C)C)NC(=O)C2(CC2)NC(=O)[C@H](CCC(=O)O)NC(=O)[C@H](Cc2c[nH]c3ccccc23)NC(=O)[C@H](Cc2ccc(O)cc2)NC(=O)[C@H](C)NC1=O [compound 18] (Ac-F[R8]AYWE[Ac3c]L[S5]AAF-NH2; staple 2-9)	7.00 to 8.00	> 8.00	7.00 to 8.00	> 8.00	0	2	4
CCCC[C@H](NC(=O)[C@H](C)NC(=O)[C@H](CO)NC(=O)[C@]1(C)CCCC=CCCCCCC[C@@](C)(NC(=O)[C@H](Cc2ccccc2)NC(=O)[C@@H](NC(=O)[C@H](CC(C)C)NC(C)=O)[C@@H](C)O)C(=O)N[C@@H](C)C(=O)N[C@@H](Cc2ccc(O)cc2)C(=O)N[C@@H](Cc2c[nH]c3ccccc23)C(=O)N[C@@H](C)C(=O)N[C@@H](CCC(N)=O)C(=O)N[C@@H](CC(C)C)C(=O)N1)C(N)=O [compound 3] (Ac-LTF[R8]AYWAQL[S5]SA[Nle]-NH2; staple 4-11)	6.00 to 7.00	7.00 to 8.00	6.00 to 7.00	7.00 to 8.00	1	1	3
CC(=O)N[C@@H](CC(C)C)C(=O)N[C@H](C(=O)N[C@@H](Cc1ccccc1)C(=O)N[C@]1(C)CCCCCCC=CCCC[C@@](C)(C(=O)N[C@@H](CO)C(=O)N[C@@H](C)C(=O)N[C@@H](CCC(C)C)C(N)=O)NC(=O)[C@H](CC(C)C)NC(=O)[C@H](CCC(N)=O)NC(=O)[C@H](C)NC(=O)[C@H](Cc2c[nH]c3ccccc23)NC(=O)[C@H](Cc2ccc(O)cc2)NC(=O)[C@H](C)NC1=O)[C@@H](C)O [compound 6] (Ac-LTF[R8]AYWAQL[S5]SA[hLeu]-NH2; staple 4-11)	6.00 to 7.00	7.00 to 8.00	6.00 to 7.00	7.00 to 8.00	1	1	1
CC[C@H](C)[C@H](NC(=O)[C@H](C)NC(=O)[C@H](C)NC(=O)[C@]1(C)CCCC=CCCCCCC[C@@](C)(NC(=O)[C@H](Cc2ccccc2)NC(C)=O)C(=O)N[C@@H](C)C(=O)N[C@@H](Cc2ccc(O)cc2)C(=O)N[C@@H](Cc2c[nH]c3ccccc23)C(=O)N[C@@H](CCC(=O)O)C(=O)NC2(CC2)C(=O)N[C@@H](CC(C)C)C(=O)N1)C(N)=O [compound 19] (Ac-F[R8]AYWE[Ac3c]L[S5]AAI-NH2; staple 2-9)	6.00 to 7.00	7.00 to 8.00	7.00 to 8.00	7.00 to 8.00	2	3	21

Continued, in another order:

pIC50 [1]	pKi [1]	pIC50 [3]	pKi [3]	SMILES	6.25 uM % Lysed cells (1 h LDH) [2] [%]	25 uM % Lysed cells (1 h LDH) [2] [%]	50 uM % Lysed cells (1 h LDH) [2] [%]
> 8.00	> 8.00	6.00 to 7.00	7.00 to 8.00	CC[C@H](C)[C@H](NC(=O)[C@H](C)NC(=O)[C@H](C)NC(=O)[C@]1(C)CCCC=CCCCCCC[C@@](C)(NC(=O)[C@H](Cc2ccccc2)NC(=O)[C@@H](NC(=O)[C@H](CC(C)C)NC(C)=O)[C@@H](C)O)C(=O)N[C@@H](CCC(=O)O)C(=O)N[C@@H](Cc2ccc(O)cc2)C(=O)N[C@@H](Cc2c[nH]c3ccccc23)C(=O)N[C@@H](C)C(=O)N[C@@H](CCC(N)=O)C(=O)N[C@@H](CC(C)C)C(=O)N1)C(=O)N[C@H](C)C(N)=O (single isomer, unassigned) [compound 217]	2	1	2
7.00 to 8.00	> 8.00	6.00 to 7.00	7.00 to 8.00	CC(=O)N[C@@H](Cc1c[nH]cn1)C(=O)N[C@@H](CC(C)C)C(=O)N[C@H](C(=O)N[C@@H](Cc1ccccc1)C(=O)N[C@]1(C)CCCCCCC=CCCC[C@@](C)(C(=O)N[C@@H](C)C(=O)N[C@@H](C)C(=O)N[C@@H](CCC(C)C)C(=O)N[C@@H](C)C(N)=O)NC(=O)[C@H](CC(C)C)NC(=O)[C@H](CCC(N)=O)NC(=O)[C@H](Cc2c[nH]cn2)NC(=O)[C@H](Cc2c[nH]c3ccccc23)NC(=O)[C@H](Cc2c[nH]cn2)NC(=O)[C@H](Cc2c[nH]cn2)NC1=O)[C@@H](C)O [compound 32] (Ac-HLTF[R8]HHWHQL[S5]AA[hLeu]A-NH2; staple 5-12)	0	2	0
< 6.00	6.00 to 7.00	6.00 to 7.00	6.00 to 7.00	CCCC[C@H](NC(=O)[C@H](C)NC(=O)[C@H](CCC(N)=O)NC(=O)[C@H](Cc1c[nH]cn1)NC(=O)[C@]1(C)CCCC=CCCCCCC[C@@](C)(NC(=O)[C@H](Cc2ccccc2)NC(C)=O)C(=O)N[C@@H](C)C(=O)N[C@@H](Cc2ccc(O)cc2)C(=O)N[C@@H](Cc2c[nH]c3ccccc23)C(=O)N[C@@H](CO)C(=O)N[C@@H](C)C(=O)N[C@@H](CC(C)C)C(=O)N1)C(N)=O [compound 39] (Ac-F[R8]AYWSAL[S5]HQA[Nle]-NH2; staple 2-9)	0	0	3
> 8.00	> 8.00	6.00 to 7.00	7.00 to 8.00	CC(=O)N[C@@H](CC(C)C)C(=O)N[C@H](C(=O)N[C@@H](Cc1ccccc1)C(=O)N[C@]1(C)CCCCCCC=CCCC[C@@](C)(C(=O)N[C@@H](C)C(=O)N[C@@H](C)C(=O)NC(C)(C)C(=O)N[C@@H](C)C(N)=O)NC(=O)[C@H](CC(C)C)NC(=O)[C@H](CCC(N)=O)NC(=O)[C@H](C)NC(=O)[C@H](Cc2c[nH]c3ccccc23)NC(=O)[C@H](Cc2ccc(O)cc2)NC(=O)[C@H](C)NC1=O)[C@@H](C)O (single isomer, unassigned) [compound 232]	6	5	5
> 8.00	> 8.00	7.00 to 8.00	7.00 to 8.00	CC(=O)N[C@@H](CC(C)C)C(=O)N[C@H](C(=O)N[C@@H](Cc1ccccc1)C(=O)N[C@]1(C)CCCCCCC=CCCC[C@@](C)(C(=O)N[C@@H](CO)C(=O)N[C@@H](C)C(=O)N[C@@H](C)C(N)=O)NC(=O)[C@H](CC(C)C)NC(=O)[C@H](CCC(N)=O)NC(=O)[C@H](C)NC(=O)[C@H](Cc2c[nH]c3ccccc23)NC(=O)[C@H](Cc2ccc(C(=O)O)cc2)NC(=O)[C@H](C)NC1=O)[C@@H](C)O (single isomer, unassigned) [compound 169]	2	3	7
7.00 to 8.00	> 8.00	6.00 to 7.00	7.00 to 8.00	CCCC[C@H](NC(=O)[C@H](C)NC(=O)[C@H](C)NC(=O)[C@]1(C)CCCC=CCCCCCC[C@@](C)(NC(=O)[C@H](Cc2ccccc2)NC(=O)[C@@H](NC(=O)[C@H](CC(C)C)NC(C)=O)[C@@H](C)O)C(=O)N[C@@H](C)C(=O)N[C@@H](Cc2ccc(O)cc2)C(=O)N[C@@H](Cc2c[nH]c3ccccc23)C(=O)N[C@@H](C)C(=O)N[C@@H](CCC(N)=O)C(=O)N[C@@H](CC(C)C)C(=O)N1)C(=O)N[C@H](C)C(N)=O (single isomer, unassigned) [compound 75]	−1	1	1
< 6.00	6.00 to 7.00	< 6.00	6.00 to 7.00	CC(=O)N[C@@H](Cc1ccccc1)C(=O)N[C@]1(C)CCCCCCC=CCCC[C@@](C)(C(=O)N[C@@H](Cc2c[nH]cn2)C(=O)N[C@@H](CCCNC(=N)N)C(=O)N[C@@H](Cc2ccccc2)C(=O)N[C@@H](CC2CCCCC2)C(N)=O)NC(=O)[C@H](CC(C)C)NC(=O)[C@H](CCC(N)=O)NC(=O)[C@H](Cc2c[nH]cn2)NC(=O)[C@H](Cc2c[nH]c3ccccc23)NC(=O)[C@H](Cc2c[nH]cn2)NC(=O)[C@H](Cc2c[nH]cn2)NC1=O [compound 55] (Ac-F[R8]HHWHQL[S5]HRF[Cha]-NH2; staple 2-9)	1	9	13
